Columns and labels:
[1] = test system: IL-2R on CD4+ T cells in human whole blood; type: cell-based
[2] = test system: IFNγ production from PMA and αCD3 antibody stimulated human PBMCs; type: cell-based
[3] = test system: IFNγ production from αCD3 and αCD28 antibody stimulated human PBMCs; type: cell-based
[4] = test system: CD40L on CD4+ T cells in human whole blood; type: cell-based
[5] = test system: IL-2 production from αCD3 and αCD28 antibody stimulated human PBMCs; type: cell-based
[6] = rat, in vivo, iv
[7] = test system: thapsigargin-induced IFN-g production in human whole blood; type: cell-based
[8] = test system: IL-2 production from PMA and αCD3 antibody stimulated human PBMCs; type: cell-based
[9] = test system: adoptive transfer EAE model of multiple sclerosis; conditions: rat, in vivo, sc
human Kv1.3 channel = human Kv1.3 channel (Homo sapiens, UniProt P22001); type: cell-based
human Kv1.1 = target: T1, human Kv1.1 (Homo sapiens, UniProt Q09470); type: cell-based
T1 construct: expressed in transfected cells; host or cells: HEK293

[10] = target: HEK 293 cells overexpressing human Kv1.3 (Homo sapiens, UniProt P22001); test: Immunohistochemistry binding to HEK 293 cells overexpressing human Kv1.3; conditions: 5 μg/ml
Method: Immunohistochemistry analysis of Fc-L10-ShK[1-35] binding to HEK 293 cells overexpressing human Kv1.3. HEK 293 cells overexpressing human Kv1.3 (HEK Kv1.3) were obtained from BioFocus plc (Cambridge, UK) and maintained per manufacturer's recommendation. The parental HEK 293 cell line was used as a control. Cells were plated on Poly-D-Lysine 24 well plates (#35-4414; Becton-Dickinson, Bedford, Mass.) and allowed to grow to approximately 70% confluence. HEK KV1.3 were plated at 0.5×10e5 cells/well in 1 ml/well of medium. HEK 293 cells were plated at a density of 1.5×10e5 cells/well in 1 ml/well of medium. Before staining, cells were fixed with formalin (Sigma HT50-1-1 Formalin solution, diluted 1:1 with PBS/0.5% BSA before use) by removing cell growth medium, adding 0.2 ml/well formalin solution and incubating at room temperature for ten minutes. Cells were stained by incubating with 0.2 ml/well of 5 μg/ml Fc-L10-ShK[1-35] in PBS/BSA for 30′ at room temperature. Fc-L10-ShK[1-35] was aspirated and then the cells were washed one time with PBS/0.5% BSA. Detection antibody (Goat F(ab)2 anti-human IgG-phycoerythrin; Southern Biotech Associates, Birmingham, Ala.) was added to the wells at 5 μg/ml in PBS/0.5% BSA and incubated for 30′ at room temperature. Wash cells once with PBS/0.5% BSA and examine using confocal microscopy (LSM 510 Meta Confocal Microscope; Carl Zeiss AG, Germany). […]

[11] = target: fixed HEK 293 cells stably transfected with human Kv1.3 (Homo sapiens, UniProt P22001); test: Whole cell immunoassay (ELISA) on fixed HEK 293 cells overexpressing Kv1.3; type: binding
Method: Our peptibody reagent can be a useful and convenient tool for monitoring Kv1.3 channel expression in patients and have utility in diagnostic applications. The procedure shown in FIG. 34A and FIG. 34B follows.
FIG. 34A. A whole cell immunoassay was performed to show binding of intact Fc-L10-ShK[1-35] to Kv1.3 transfected HEK 293 cells (BioFocus plc, Cambridge, UK). Parent HEK 293 cells or HEK Kv1.3 cells were plated at 3×10e4 cells/well in poly-D-Lysine coated ninety-six well plates (#35-4461; Becton-Dickinson, Bedford, Mass.). Cells were fixed with formalin (Sigma HT50-1-1 Formalin solution, diluted 1:1 with PBS/0.5% BSA before use) by removing cell growth medium, adding 0.2 ml/well formalin solution and incubating at room temperature for 25 minutes and then washing one time with 100 μl/well of PBS/0.5% BSA. Wells were blocked by addition of 0.3 ml/well of BSA blocker (50-61-00; KPL 10% BSA Diluent/Blocking Solution, diluted 1:1 with PBS; KPL, Gaithersburg, Md.) followed by incubation at room temperature, with shaking, for 3 hr. Plates were washed 2 times with 1×KP Wash Buffer (50-63-00; KPL). […] Absorbance was read at 450 nm on a Molecular Devices SpectroMax 340 (Sunnyvale, Calif.).
FIG. 34B. […] Absorbances were read at 405 nm after stopping reactions by addition of 0.1 ml/well of 1% SDS.

[12] = test system: T cell proliferation in human PBMCs; test: T cell proliferation (3H-thymidine incorporation) in anti-CD3/anti-CD28 stimulated human PBMCs; type: cell-based; conditions: two normal donors
From the text: Inhibition of T cell proliferation following anti-CD3 and anti-CD28 antibody stimulation of PBMCs. PBMC's were previously isolated from normal human donor Leukophoresis packs, purified by density gradient centrifugation (Ficoll Hypaque), cryopreserved in CPZ Cryopreservation Medium Complete (INCELL, MCPZF-100 plus 10% DMSO final). PBMC's were thawed (95% viability), washed, and seeded at 2×10^5 cells per well in culture medium (RPMI medium 1640; GIBCO) supplemented with 10% fetal calf serum, 100 U/ml penicillin, […] streptomycin, 2 mM L-glutamine, 100 μM non-essential amino acids, and 20 μM 2-ME) in 96-well flat-bottom tissue culture plates. Cells were pre-incubated with either anti-human CD32 (FcyRII) blocking antibody (per manufacturers instructions EASY SEP Human Biotin Selection Kit #18553, StemCell Technologies Vancouver, BC) or Fc-L10-ShK (100 nM-0.001 nM final) for 45 min. Fc-L10-ShK (100 nM-0.001 nM final) was then added to the cells containing anti-human CD32 blocking antibody while medium was added to the cells containing Fc-L10-ShK. Both sets were incubated for an additional 45 min before stimulating for 48 hr with aCD3/aCD28 (0.2 ng/ml and 100 ng/ml, respectively). Final assay volume was 200 ul. […] Cells were then harvested onto glass fiber filters and radioactivity was measured in a B-scintillation counter.

Sequence of human Kv1.3 channel (P22001 whole entry): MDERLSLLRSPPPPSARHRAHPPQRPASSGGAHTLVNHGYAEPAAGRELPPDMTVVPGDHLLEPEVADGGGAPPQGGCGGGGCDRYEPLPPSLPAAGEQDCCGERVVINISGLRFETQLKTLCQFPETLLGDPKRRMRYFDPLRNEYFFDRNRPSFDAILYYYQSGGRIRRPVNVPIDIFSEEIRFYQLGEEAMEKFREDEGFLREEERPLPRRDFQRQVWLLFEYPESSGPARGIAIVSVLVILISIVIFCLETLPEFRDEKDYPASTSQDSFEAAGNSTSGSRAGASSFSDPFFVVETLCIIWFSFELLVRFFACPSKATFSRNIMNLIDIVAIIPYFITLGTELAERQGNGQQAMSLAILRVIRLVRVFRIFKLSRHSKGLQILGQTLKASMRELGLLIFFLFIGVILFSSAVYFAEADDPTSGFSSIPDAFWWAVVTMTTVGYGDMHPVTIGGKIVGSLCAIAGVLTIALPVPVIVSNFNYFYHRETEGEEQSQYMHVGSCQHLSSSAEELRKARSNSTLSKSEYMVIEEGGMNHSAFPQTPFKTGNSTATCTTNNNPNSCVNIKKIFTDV
Sequence of fixed HEK 293 cells stably transfected with human Kv1.3 (P22001 whole entry): as above
Sequence of HEK 293 cells overexpressing human Kv1.3 (P22001 whole entry): as above
T1 sequence (Q09470 whole entry): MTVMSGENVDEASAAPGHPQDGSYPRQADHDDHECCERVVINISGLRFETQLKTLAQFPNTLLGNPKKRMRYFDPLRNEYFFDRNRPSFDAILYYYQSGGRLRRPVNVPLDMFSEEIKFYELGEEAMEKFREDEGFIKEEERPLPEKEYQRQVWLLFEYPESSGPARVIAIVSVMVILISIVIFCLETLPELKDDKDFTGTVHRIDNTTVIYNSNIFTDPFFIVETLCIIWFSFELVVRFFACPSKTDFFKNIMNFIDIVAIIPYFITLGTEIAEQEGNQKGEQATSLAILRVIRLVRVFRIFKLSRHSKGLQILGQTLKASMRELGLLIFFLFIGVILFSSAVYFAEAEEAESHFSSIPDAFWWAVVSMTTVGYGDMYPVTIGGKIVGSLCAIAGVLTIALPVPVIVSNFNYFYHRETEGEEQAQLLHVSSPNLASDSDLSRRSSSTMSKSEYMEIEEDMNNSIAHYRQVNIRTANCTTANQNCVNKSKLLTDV

CC[C@H](C)[C@@H]1NC(=O)[C@@H](NC(=O)[C@H](CO)NC(=O)[C@@H](N)CCCNC(=N)N)CSSC[C@@H](C(=O)O)NC(=O)[C@H]([C@@H](C)O)NC(=O)CNC(=O)[C@@H]2CSSC[C@@H]3NC(=O)[C@H](CCC(N)=O)NC(=O)[C@H](Cc4ccccc4)NC(=O)[C@H](C)NC(=O)[C@H]([C@@H](C)O)NC(=O)[C@H](CSSC[C@H](NC(=O)[C@H](Cc4ccccc4)NC(=O)[C@H](CO)NC(=O)[C@H](CC(C)C)NC(=O)[C@H](CCCNC(=N)N)NC(=O)[C@H](Cc4ccc(O)cc4)NC(=O)[C@H](CCCCN)NC(=O)[C@H](CCSC)NC(=O)[C@H](CO)NC(=O)[C@H](Cc4cnc[nH]4)NC(=O)[C@H](CCCCN)NC3=O)C(=O)N[C@@H](CCCNC(=N)N)C(=O)N[C@@H](CCCCN)C(=O)N[C@@H]([C@@H](C)O)C(=O)N2)NC(=O)[C@H](CCCNC(=N)N)NC(=O)[C@H](CO)NC(=O)[C@H](CCCCN)NC(=O)[C@@H]2CCCN2C(=O)[C@H]([C@@H](C)CC)NC(=O)[C@H]([C@@H](C)O)NC(=O)[C@H](CC(=O)O)NC1=O [ShK, reference compound]
thapsigargin-induced upregulation of IL-2R on T cells (in words) [1]: suppressed
inhibition of IFNγ production (in words) [2]: only a partial inhibition
inhibition of IFNg production (in words) [3]: only partial inhibition
thapsigargin-induced upregulation of CD40L on T cells (in words) [4]: suppressed
inhibition of IL-2 production (in words) [5]: only partial inhibition
time of significant suppression of Kv1.3 current (<70 POC) by 5% serum Test solutions [6]: ≤ 1 h
thapsigargin-induced IFN-g production in human whole blood (in words) [7]: suppressed
inhibition of IL-2 production (in words) [8]: only a partial inhibition
average body weight lost [9]: 30 g
disease severity and survival (in words) [9]: developed severe disease and died
onset of disease [9]: 4 days

Fc-L10-OSK1[E16K,K20D]: Fc-L10-OSK1 with E16K and K20D substitutions
difference in Kv1.3 potency compared to Fc-L10-OSK1 (human Kv1.3 channel): 1.3 fold
fold less potent than the synthetic OSK1 toxin peptide (Kv1.3) (human Kv1.3 channel): approximately 6 fold
blocking activity against Kv1.1 (in words) (human Kv1.1): removed the blocking activity against Kv1.1

Fc-L10-ShK[1-35]: Fc region of human IgG1 fused in-frame to L10 linker and a monomer of ShK[1-35]
thapsigargin-induced upregulation of IL-2R on T cells (in words) [1]: suppressed
inhibition of IFNγ production (in words) [2]: complete inhibition of the response
inhibition of IFNg production (in words) [3]: nearly complete inhibition
thapsigargin-induced upregulation of CD40L on T cells (in words) [4]: suppressed
binding to Kv1.3 overexpressing HEK 293 cells (staining) [10]: binds to Kv1.3 overexpressing HEK 293 cells but shows little binding to untransfected cells
inhibition of IL-2 production (in words) [5]: nearly complete inhibition
block of human Kv1.3 current (in words) (human Kv1.3 channel): potently blocked human Kv1.3
binding to fixed cells that overexpress Kv1.3 (ELISA) [11]: dose-dependent increase in the peptibody binding to fixed cells that overexpress Kv1.3
inhibition of IL-2 production (in words) [8]: complete inhibition of the response
inhibition of T cell proliferation (in words) [12]: potently inhibits proliferation of T cells in a dose-dependent manner

Source: patent publication US7803769B2 (priority 2006, dated 2010)
